ChEMBL document CHEMBL3882736, “Modulation microtubules diseases; antiproliferative agents; antiinflamamtory agents” (2011)

Experiments:
Tubulin (Homo sapiens) = Tubulin (Homo sapiens) (UniProt P68371+Q9H4B7+P0DPH7+P68366+Q13509+Q71U36+P04350+Q3ZCM7+P07437+P68363+Q9BQE3+Q6PEY2+Q13885+Q9BVA1+Q9BUF5); experiment: Inhibition of tubulin (unknown origin) polymerization at 50 uM by turbidometric method relative to control; type: protein-complex assay
How it was run: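 The inhibition of polymerisation reported here is expressed as percent of control. Polymerisation of microtubule protein of unstated origin, after incubation with compound at 0° C., was started with 1 mM GTP and heating to 37° C. and was tracked over time as absorbance at 340 nm in a thermostatically controlled spectrophotometer.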

[1] = Cytotoxicity against human PC3 cells assessed as growth inhibition at 20 uM after 40 hrs by MTT assay relative to control; type: functional; conditions: PC-3, 40 h, read-out: GI
How it was run: (§1)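 Human tumour cells in late log phase, each in its own medium with 10% FBS, were added at 90 µL per well (1.1× final, 50000 to 200,000 cell/mL) to 10 µL compound (10× final) in 96-well plates, from screening plates prepared at 20 µM. Plates were incubated 40 hr at 37° C., 5% CO2, then MTT was added for 6 hours, lysed overnight with SDS/HCl and read at 590 nm. Growth inhibition is relative to control.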

[2] = biological target: Tyrosine-protein kinase JAK2 (Homo sapiens) (UniProt O60674); experiment: Inhibition of TEL-fused JAK2 kinase domain (2994 to 3914 nucleotide) (unknown origin) expressed in mouse BaF3 cells assessed as decrease in cell growth at 20 uM after 40 hrs by MTT assay relative to control; type: cell-based
Chain of Tyrosine-protein kinase JAK2 (Homo sapiens) (O60674 whole entry, the tested form may be a part): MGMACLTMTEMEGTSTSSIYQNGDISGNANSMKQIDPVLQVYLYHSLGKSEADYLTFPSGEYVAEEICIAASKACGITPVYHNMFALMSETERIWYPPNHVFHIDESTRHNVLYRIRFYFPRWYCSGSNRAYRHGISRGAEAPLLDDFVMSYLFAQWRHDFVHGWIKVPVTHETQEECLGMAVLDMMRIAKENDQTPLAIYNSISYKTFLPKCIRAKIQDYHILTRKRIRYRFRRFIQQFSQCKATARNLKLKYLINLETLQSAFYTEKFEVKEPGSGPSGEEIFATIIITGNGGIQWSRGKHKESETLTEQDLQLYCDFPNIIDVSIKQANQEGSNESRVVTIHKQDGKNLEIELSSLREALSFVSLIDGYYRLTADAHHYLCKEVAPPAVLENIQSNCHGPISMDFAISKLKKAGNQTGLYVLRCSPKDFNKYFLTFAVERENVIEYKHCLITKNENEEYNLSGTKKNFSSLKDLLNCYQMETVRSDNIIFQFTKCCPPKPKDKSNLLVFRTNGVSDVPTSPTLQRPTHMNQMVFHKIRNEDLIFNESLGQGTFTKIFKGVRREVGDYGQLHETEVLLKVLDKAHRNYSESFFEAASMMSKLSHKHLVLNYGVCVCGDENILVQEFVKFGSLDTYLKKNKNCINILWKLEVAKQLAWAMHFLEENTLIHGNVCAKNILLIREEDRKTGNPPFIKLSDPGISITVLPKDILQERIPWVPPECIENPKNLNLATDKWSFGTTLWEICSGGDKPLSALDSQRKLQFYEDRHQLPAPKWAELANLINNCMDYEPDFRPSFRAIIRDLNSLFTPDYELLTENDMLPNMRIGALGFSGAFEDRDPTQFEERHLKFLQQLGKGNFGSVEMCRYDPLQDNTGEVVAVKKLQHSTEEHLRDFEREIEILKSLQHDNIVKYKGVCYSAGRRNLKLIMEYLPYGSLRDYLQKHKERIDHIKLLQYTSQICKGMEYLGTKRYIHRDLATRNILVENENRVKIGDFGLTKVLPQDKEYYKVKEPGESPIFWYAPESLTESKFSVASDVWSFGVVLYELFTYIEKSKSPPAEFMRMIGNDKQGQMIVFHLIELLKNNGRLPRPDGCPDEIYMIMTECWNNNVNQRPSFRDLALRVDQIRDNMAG

[3] = Cytotoxicity against human DU145 cells assessed as growth inhibition at 20 uM after 40 hrs by MTT assay relative to control; type: functional; conditions: DU-145, 40 h, read-out: GI; how it was run: as §1
[4] = biological target: T1, Tyrosine-protein kinase JAK3 (Homo sapiens) (UniProt P52333); experiment: Inhibition of TEL-fused JAK3 kinase domain (2520 to 3469 nucleotide) (unknown origin) expressed in mouse BaF3 cells assessed as decrease in cell growth at 20 uM after 40 hrs by MTT assay relative to control; type: cell-based
T1 sequence (whole entry): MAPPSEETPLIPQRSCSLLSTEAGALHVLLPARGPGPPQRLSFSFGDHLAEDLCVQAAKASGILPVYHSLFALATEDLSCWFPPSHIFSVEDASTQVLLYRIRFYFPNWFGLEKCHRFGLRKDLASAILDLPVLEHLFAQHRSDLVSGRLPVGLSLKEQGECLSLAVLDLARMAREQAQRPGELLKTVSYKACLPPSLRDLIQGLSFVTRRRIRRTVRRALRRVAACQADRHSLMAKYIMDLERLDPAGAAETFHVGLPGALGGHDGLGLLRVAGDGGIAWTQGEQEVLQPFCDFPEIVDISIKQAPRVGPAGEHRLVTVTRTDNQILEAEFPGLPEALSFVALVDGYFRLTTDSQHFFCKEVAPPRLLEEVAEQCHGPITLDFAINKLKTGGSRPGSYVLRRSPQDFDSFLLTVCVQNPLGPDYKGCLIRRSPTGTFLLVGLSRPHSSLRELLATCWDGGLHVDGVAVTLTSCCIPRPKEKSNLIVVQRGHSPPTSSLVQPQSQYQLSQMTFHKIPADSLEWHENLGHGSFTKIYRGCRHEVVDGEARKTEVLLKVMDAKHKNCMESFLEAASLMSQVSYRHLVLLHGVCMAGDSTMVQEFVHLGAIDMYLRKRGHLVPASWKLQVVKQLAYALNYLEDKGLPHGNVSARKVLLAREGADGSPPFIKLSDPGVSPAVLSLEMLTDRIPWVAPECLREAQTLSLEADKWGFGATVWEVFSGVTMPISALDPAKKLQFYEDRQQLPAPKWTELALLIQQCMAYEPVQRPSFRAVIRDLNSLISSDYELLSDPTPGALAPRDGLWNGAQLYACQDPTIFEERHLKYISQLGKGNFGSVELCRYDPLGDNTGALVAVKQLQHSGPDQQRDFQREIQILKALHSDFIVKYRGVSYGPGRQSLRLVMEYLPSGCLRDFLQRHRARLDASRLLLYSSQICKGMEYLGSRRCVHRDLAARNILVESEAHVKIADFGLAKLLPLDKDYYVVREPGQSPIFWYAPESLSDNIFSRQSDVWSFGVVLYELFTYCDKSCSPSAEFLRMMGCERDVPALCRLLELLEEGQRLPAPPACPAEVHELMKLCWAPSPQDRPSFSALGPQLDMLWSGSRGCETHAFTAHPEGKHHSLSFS

Row | Structure (SMILES) | inhibition (Tubulin (Homo sapiens)) [%] | inhibition [2] [%] | inhibition [4] [%] | inhibition of growth at 20 µM [1] [%] | inhibition of growth at 20 µM [3] [%]
1 | CCCC(Nc1cncc(-c2ccc(NC(=O)NCC)c(OC)c2)n1)c1cncc(C)c1 (stereo not drawn) | > 50 | – | – | > 50 | –
2 | CCCC(Nc1cncc(-c2ccc(OCCCCN)c(OC)c2)n1)c1ccccc1 (stereo not drawn) | > 50 | – | – | > 50 | –
3 | CCCC(Nc1cncc(-c2ccc(NC(=O)NCC)c(C)c2)n1)c1ccccn1 (stereo not drawn) | > 50 | – | – | > 50 | –
4 | CCCC(Nc1cncc(-c2ccc(CNC(=O)C3CCNCC3)cc2)n1)c1ccccc1 (stereo not drawn) | > 50 | – | – | > 50 | –
5 | COc1cc(-c2cncc(N[C@@H](C)c3ccccc3)c2)ccc1O | > 50 | – | – | > 50 | –
6 | CC[C@H](Nc1nc(-c2ccc(O)c(OC)c2)ncc1C)c1cccnc1 | > 50 | – | – | > 50 | –
7 | COc1cc(-c2cc(N[C@@H](C)c3ccccc3)ncn2)ccc1O | > 50 | – | – | > 50 | –
8 | CCNC(=O)Nc1ccc(-c2cncc(N[C@@H](COCC)c3ccccc3)n2)cc1OC | > 50 | – | – | > 50 | –
9 | CCCC(Nc1cncc(-c2ccc(OCCCCN3CCN(C)CC3)c(OC)c2)n1)c1ccccc1 (stereo not drawn) | > 50 | – | – | > 50 | –
10 | CCNC(=O)Nc1ccc(-c2ncc(C)c(N[C@@H](CC)c3cccnc3)n2)cc1OC | > 50 | – | – | > 50 | –
11 | CCCC(Nc1cncc(-c2ccc(NC(=O)NCC)c(OC)c2)n1)c1cccc(F)c1 (stereo not drawn) | > 50 | – | – | > 50 | –
12 | CCCC(Nc1cncc(-c2ccc(OCCCN(CC)CC)c(OC)c2)n1)c1ccccc1 (stereo not drawn) | > 50 | – | – | > 50 | –
13 | COc1cc(-c2nccc(N[C@@H](C)c3ccccc3)n2)ccc1O | > 50 | – | – | > 50 | –
14 | CCCC(Nc1cncc(-c2ccc(O)c(OC)c2)c1)c1ccccc1 (stereo not drawn) | > 50 | – | – | > 50 | –
15 | CCCC(Nc1cncc(-c2ccc(OCCCCN3CCCCC3)c(OC)c2)n1)c1ccccc1 (stereo not drawn) | > 50 | – | – | > 50 | –
16 | CCCC(Nc1cncc(-c2ccc(OCCCN3CCCC3)c(OC)c2)n1)c1ccccc1 (stereo not drawn) | > 50 | – | – | > 50 | –
17 | CCC[C@H](Nc1cncc(-c2ccc(NC(=O)NCC)c(OC)c2)n1)c1ccccn1 | > 50 | – | – | > 50 | –
18 | CCC[C@H](Nc1nc(-c2ccc(NC(=O)NCC)c(OC)c2)ncc1C)c1cccnc1 [LEXIBULIN] | > 50 | – | – | > 50 | –
19 | CCCC(Nc1cncc(-c2ccc(NC(=O)NCC)c(CC)c2)n1)c1cccnc1 (stereo not drawn) | > 50 | – | – | > 50 | –
20 | CCCC(Nc1cncc(-c2ccc(NC(=O)NCC)c(OC)c2)n1)c1ccccn1 (stereo not drawn) | > 50 | – | – | > 50 | –
21 | CCCC(Nc1cncc(-c2ccc(OCCN(CC)CC)c(OC)c2)n1)c1ccccc1 (stereo not drawn) | > 50 | – | – | > 50 | –
22 | CCNC(=O)Nc1ccc(-c2cncc(N[C@@H](COC)c3ccccc3)n2)cc1OC | > 50 | – | – | > 50 | –
23 | CCCC(Nc1cncc(-c2ccc(NC(=O)NCC)c(OC)c2)n1)c1cnccc1C (stereo not drawn) | > 50 | – | – | > 50 | –
24 | CCC[C@H](Nc1nc(-c2ccc(O)c(OC)c2)ncc1C)c1cccnc1 | > 50 | – | – | > 50 | –
25 | CCCC(Nc1cncc(-c2ccc(OCCCCO)c(OC)c2)n1)c1ccccc1 (stereo not drawn) | > 50 | – | – | > 50 | –

Second part, led by results:

Row | inhibition (Tubulin (Homo sapiens)) [%] | inhibition [2] [%] | inhibition [4] [%] | Structure (SMILES) | inhibition of growth at 20 µM [1] [%] | inhibition of growth at 20 µM [3] [%]
26 | > 50 | – | – | CCC[C@H](Nc1cncc(-c2ccc(NC(=O)NCC)c(OC)c2)n1)c1ccccc1 | > 50 | –
27 | > 50 | – | – | CCC[C@H](Nc1cncc(-c2ccc(NC(=O)NCC)c(C)c2)n1)c1cccnc1 | > 50 | –
28 | > 50 | – | – | CCNC(=O)Nc1ccc(-c2cncc(N[C@@H](CC)c3cccnc3)n2)cc1OC | > 50 | –
29 | > 50 | – | – | CCCC(Nc1cncc(-c2ccc(OCCCO)c(OC)c2)n1)c1ccccc1 (stereo not drawn) | > 50 | –
30 | > 50 | – | – | CCCC(Nc1cncc(-c2ccc(NC(=O)NCC)c(C)c2)n1)c1cnccc1C (stereo not drawn) | > 50 | –
31 | > 50 | – | – | CCCC(Nc1cncc(-c2ccc(NC(=O)NCC)c(OC)c2)n1)c1cccnc1 (stereo not drawn) | > 50 | –
32 | > 50 | – | – | CCNC(=O)Nc1ccc(-c2cncc(NC(CCOC)c3ccccc3)n2)cc1OC (stereo not drawn) | > 50 | –
33 | > 50 | – | – | CCCC(Nc1cncc(-c2ccc(NC(=O)NCCN(C)C)c(OC)c2)n1)c1cccnc1 (stereo not drawn) | > 50 | –
34 | > 50 | – | – | CCCC(Nc1cncc(-c2ccc(OCCCCN(CC)CC)c(OC)c2)n1)c1ccccc1 (stereo not drawn) | > 50 | –
35 | > 50 | – | – | CCCC(Nc1cncc(-c2ccc(CO)cc2)n1)c1ccccc1 (stereo not drawn) | > 50 | –
36 | > 50 | – | – | CCCC(Nc1cncc(-c2ccc(OCCCCN3CCCC3)c(OC)c2)n1)c1ccccc1 (stereo not drawn) | > 50 | –
37 | > 50 | – | – | CCC[C@H](Nc1cc(-c2ccc(NC(=O)NCC)c(OC)c2)ncn1)c1cccnc1 | > 50 | –
38 | > 50 | – | – | CCCC(Nc1cncc(-c2cc(C)c(O)c(C)c2)c1)c1ccccc1 (stereo not drawn) | > 50 | –
39 | > 50 | – | – | CCCC(Nc1cncc(-c2ccc(CN)cc2)n1)c1ccccc1 (stereo not drawn) | > 50 | –
40 | > 50 | – | – | CCCC(Nc1cncc(-c2ccc(CN)c(OC)c2)n1)c1cccnc1 (stereo not drawn) | > 50 | –
41 | > 50 | – | – | CCCC(Nc1cncc(-c2ccc(NC(=O)NCC)c(C)c2)n1)c1cccnc1 (stereo not drawn) | > 50 | –
42 | > 50 | > 50 | > 50 | COc1cc(-c2cncc(NC(C)c3cccc(NC(=O)c4ccncc4)c3)n2)ccc1O (stereo not drawn) | – | > 50
43 | > 50 | – | – | CCCC(Nc1cncc(-c2ccc(OCCCn3ccnc3)c(OC)c2)n1)c1ccccc1 (stereo not drawn) | > 50 | –
44 | > 50 | – | – | CCCC(Nc1cncc(-c2ccc(NC(=O)NCC)c(OC)c2)n1)c1cccnc1C (stereo not drawn) | > 50 | –
45 | > 50 | – | – | CCC[C@H](Nc1cncc(-c2ccc(NC(=O)NCC)c(OC)c2)n1)c1cccnc1 | > 50 | –
46 | > 50 | – | – | CCCC(Nc1nc(-c2ccc(NC(=O)NCC)c(OC)c2)cnc1C)c1ccccc1 (stereo not drawn) | > 50 | –
47 | > 50 | – | – | CCCC(Nc1nnc(C)c(-c2ccc(O)c(OC)c2)n1)c1ccccc1 (stereo not drawn) | > 50 | –
48 | > 50 | – | – | CCCC(Nc1cncc(-c2ccc(OCCCN3CCN(C)CC3)c(OC)c2)n1)c1ccccc1 (stereo not drawn) | > 50 | –
49 | > 50 | – | – | CCCC(Nc1cncc(-c2ccc(CN3CCCC3)cc2)n1)c1ccccc1 (stereo not drawn) | > 50 | –
50 | > 50 | – | – | CCC[C@H](Nc1ccnc(-c2ccc(NC(=O)NCC)c(OC)c2)n1)c1cccnc1 | > 50 | –
51 | > 50 | – | – | CCCC(Nc1cncc(-c2ccc(NC(=O)NCCCN3CCOCC3)c(OC)c2)n1)c1cccnc1 (stereo not drawn) | > 50 | –
52 | > 50 | – | – | CCCC(Nc1cc(-c2ccc(O)c(OC)c2)ncn1)c1cccnc1 (stereo not drawn) | > 50 | –
53 | > 50 | – | – | CCCC(Nc1cncc(-c2ccc(CNC(=O)C3CCCNC3)cc2)n1)c1ccccc1 (stereo not drawn) | > 50 | –
